Literature values, collected in US20240207481A1, “KIT OF GEL-FORMING SOLUTIONS INTENDED FOR PREPARATION OF HYDROGEL BASED ON COVALENTLY CROSSLINKED HYDROXYPHENYL DERIVATIVE OF HYALURONAN FOR PREVENTION OF POSTOPERATIVE COMPLICATIONS RELATED TO FORMATION OF COLORECTAL ANASTOMOSIS, USE OF KIT, METHOD OF PREPARATION OF HYDROGEL AND USE THREREOF” (CONTIPRO A.S., priority 2020, published 2024).

Oc1cc(Cl)ccc1Oc1ccc(Cl)cc1Cl [Triclosan, 2,4,4′-trichloro-2′-hydroxydiphenyl ether]
solubility in water: poorly soluble
solubility in polar organic solvents (ethanol, chloroform, isopropanol): well soluble
